Laboratory results as given in patent publication US20220047567A1, “METHODS FOR THE TREATMENT OF NEUROFIBROMATOSIS” (INSERM (INSTITUT NATIONAL DE LA SANTÉ ET DE LA RECHERCHE …, priority 2018, published 2022).
Entries after “also recorded” stand apart in the source; their conditions may differ.

Experiments:
[1] = system: PIK3CA pathway (phosphorylation of AKT and S6RP) in NF1−/− cells; assay: Western blot of AKT and S6RP phosphorylation in immortalized NF1−/− cells; type: cell-based; settings: after 12 h of exposure
Text: (§1) FIG. 1: NF1+/+ and NF1−/− cells were exposed to either DMSO, BYL719 at different concentrations […], selumetinib at different concentrations (1 and 10 mmol·L−1) or a combination of BYL719 1 mmol·L−1 and selumetinib 10 mmol·L−1 or BYL719 1 mmol·L−1 and selumetinib 10 mmol·L−1 and IPA3. […] The addition of BYL719 to either selumetinib or selumetinib and IPA3 increases cells apoptosis. All data are shown as the means±s.e.m. ANOVA followed by Tukey-Kramer test. White column: NF1+/+, black column: NF1−/−.
(§2) Inventors first checked in immortalized NF1−/− cells if the PIK3CA pathway was recruited (FIGS. 1A, 1B and 1C). […] They then treated the cells with BYL719. […] They then exposed the NF1−/− cells to different dose of selumetinib, a MAP kinase inhibitor, drug that gave encouraging results in some patients with neurofibromatosis.

NF1−/− cells = assay: Apoptosis assessed by PARP cleavage in NF1−/− cells; type: cell-based; settings: different doses, FIG. 1C
Text: as §1, §2

Structure (SMILES): Cc1nc(NC(=O)N2CCC[C@H]2C(N)=O)sc1-c1ccnc(C(C)(C)C(F)(F)F)c1 [BYL719]
- phosphorylation of AKT ([1]; FIG. 1A): efficiently blocks; also recorded: efficiently blocking
- phosphorylation of S6RP ([1]; FIG. 1B): efficiently blocks; also recorded: efficiently blocking
- apoptosis as assessed by PARP cleavage (NF1−/− cells): induces apoptosis; also recorded: increased apoptosis as assessed by PARP cleavage in a dose dependent manner
